Data as given in patent US10745401B2, “Condensed lactam derivative” (Sumitomo Dainippon Pharma Co., Ltd., priority 2018, dated 2020).

Legend:
[1] = molecular target: T1, human 5-HT1A receptor (Homo sapiens (Human), UniProt P08908); assay: Test 1: binding activity for human 5-HT1A receptor ([3H]8-OH-DPAT, CHO cell membrane fraction)
Outline: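 Membranes incubated with [3H]8-OH-DPAT and compound for 60 min at room temperature, then filtered on polyethylenimine-coated glass-fibre plates and counted by liquid scintillation. IC50 from Hill analysis; Ki = IC50/(1+S/Kd), Kd from saturation binding on the same membranes.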

[2] = molecular target: T1, human 5-HT1A receptor; assay: Test 2: agonist activity for human 5-HT1A receptor ([35S]GTPγS binding); assay type: biochemical; conditions: for EC50: [35S]GTPγS binding, concentration at which half the activity of Emax was obtained; for Emax at 10 µM: agonist activity in the presence of 10 μM of compound, relative to 100 μmol/L 5-HT
Outline: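 Membranes from CHO cells expressing human 5-HT1A incubated with compound, GDP-containing buffer and [35S]GTPγS for 60 min at room temperature. Bound radioactivity collected by glass-fibre filtration and counted by liquid scintillation; agonist activity derived from a formula.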

[3] = Test 4: metabolic stability test in human hepatic microsome; assay type: in vitro ADME; conditions: 0.1 mg/mL microsome, 0.1 μmol/L compound, 37° C., 30 minutes
Outline: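 Compound at 0.1 μmol/L incubated 30 min at 37° C with human liver microsomes (0.1 mg/mL) and NADPH (3.2 mmol/L) in 25 mmol/L phosphate buffer, pH 7.4. Residual compound measured by LC-MS; stability (mL/min/mg protein) = −LN(residual ratio)/30/0.1.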

[4] = molecular target: human D2 receptor (Homo sapiens (Human), UniProt P14416); assay: Test 1: binding activity for human D2 receptor ([3H]Spiperone, CHO cell membrane fraction); conditions: for Ki: human D2 receptor, [3H]Spiperone; for D2 Ki/5-HT1A Ki / D2 Ki/5-HT2A Ki: selectivity ratio
Sequence of human D2 receptor (P14416 whole entry): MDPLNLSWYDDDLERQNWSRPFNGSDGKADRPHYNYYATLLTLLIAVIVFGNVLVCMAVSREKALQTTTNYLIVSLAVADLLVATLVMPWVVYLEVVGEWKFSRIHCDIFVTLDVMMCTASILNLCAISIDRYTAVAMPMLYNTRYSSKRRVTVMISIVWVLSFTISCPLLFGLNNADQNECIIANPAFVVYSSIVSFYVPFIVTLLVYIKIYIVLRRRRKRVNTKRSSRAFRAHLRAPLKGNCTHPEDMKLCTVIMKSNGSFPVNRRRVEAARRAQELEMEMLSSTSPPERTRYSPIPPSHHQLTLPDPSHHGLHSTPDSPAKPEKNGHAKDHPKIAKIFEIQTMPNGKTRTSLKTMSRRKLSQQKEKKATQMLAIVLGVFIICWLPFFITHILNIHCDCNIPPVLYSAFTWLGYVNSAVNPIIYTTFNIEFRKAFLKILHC
Outline: (§1)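 CHO-cell membranes with [3H]ketanserin (5-HT2A) or [3H]spiperone (D2) were incubated with compound for 60 min at room temperature, then filtered, and bound radioactivity was counted by scintillation. Ki = IC50/(1+S/Kd), with ligand Kd from saturation binding on the same membranes.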

[5] = molecular target: T2, hERG channel (Homo sapiens (Human), UniProt Q12809); assay: Test 6-2: inhibitory activity for hERG channel (auto patch clamp, Qube); assay type: cell-based; conditions: Test 6-2, hERG-CHO cells, whole cell patch clamp; read-out: hERG inhibition IC50
T2 sequence (Q12809 whole entry): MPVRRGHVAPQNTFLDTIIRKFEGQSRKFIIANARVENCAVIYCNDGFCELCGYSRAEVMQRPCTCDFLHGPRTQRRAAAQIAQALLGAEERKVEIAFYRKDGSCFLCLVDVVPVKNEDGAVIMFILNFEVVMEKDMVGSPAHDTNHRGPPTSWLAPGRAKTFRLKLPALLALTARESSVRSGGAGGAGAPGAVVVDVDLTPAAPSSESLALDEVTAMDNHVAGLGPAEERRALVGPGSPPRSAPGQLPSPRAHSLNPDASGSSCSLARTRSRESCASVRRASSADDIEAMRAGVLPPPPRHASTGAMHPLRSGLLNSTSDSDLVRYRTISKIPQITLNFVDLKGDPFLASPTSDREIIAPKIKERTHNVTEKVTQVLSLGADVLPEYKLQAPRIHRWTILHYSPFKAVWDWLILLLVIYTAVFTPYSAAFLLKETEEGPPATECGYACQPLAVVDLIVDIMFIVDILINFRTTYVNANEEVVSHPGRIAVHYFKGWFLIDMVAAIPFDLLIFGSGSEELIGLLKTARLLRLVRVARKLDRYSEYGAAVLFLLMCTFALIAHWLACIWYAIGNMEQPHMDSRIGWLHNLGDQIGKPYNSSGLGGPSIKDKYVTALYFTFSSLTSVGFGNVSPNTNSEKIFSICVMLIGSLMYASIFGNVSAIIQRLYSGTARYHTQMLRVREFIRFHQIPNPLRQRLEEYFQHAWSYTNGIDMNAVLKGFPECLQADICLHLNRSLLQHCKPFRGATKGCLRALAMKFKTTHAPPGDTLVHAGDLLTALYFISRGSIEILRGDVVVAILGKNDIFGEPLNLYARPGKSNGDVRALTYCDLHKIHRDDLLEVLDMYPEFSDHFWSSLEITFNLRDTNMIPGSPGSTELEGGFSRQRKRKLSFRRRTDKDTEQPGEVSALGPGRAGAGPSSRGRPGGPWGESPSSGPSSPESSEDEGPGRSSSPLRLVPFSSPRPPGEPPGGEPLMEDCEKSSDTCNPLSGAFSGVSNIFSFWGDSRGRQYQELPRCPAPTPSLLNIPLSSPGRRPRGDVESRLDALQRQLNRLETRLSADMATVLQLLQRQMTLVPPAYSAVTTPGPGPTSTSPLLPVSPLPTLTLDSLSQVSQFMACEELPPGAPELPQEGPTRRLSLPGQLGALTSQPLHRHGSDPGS
Description: Extracellular fluid: 2 mmol/L CaCl2, 1 mmol/L MgCl2, 10 mmol/L HEPES, 4 mmol/L KCl, 145 mmol/L NaCl, 10 mmol/L Glucose
(Measurement of Current Value and Data Analysis)
The cell suspension, the extracellular fluid, the intracellular fluid, and the measurement plate were set in the auto patch clamp system, and hERG current was measured by whole cell patch clamp method. […] Each pulse interval was 15 seconds. […] The test was carried out by applying incrementally 4 concentrations of each test compound, and the average of the maximum peak tail currents which were obtained from the last 3 stimulations in each concentration was determined as the evaluated data. Based on the current inhibition rate for a pre-applied current at each concentration of each test compound, IC50 value was calculated by Hill equation with the software.

[6] = molecular target: T3, human 5-HT2A receptor (Homo sapiens (Human), UniProt P28223); assay: Test 1: binding activity for human 5-HT2A receptor ([3H]Ketanserin, CHO cell membrane fraction)
T3 sequence (P28223 whole entry): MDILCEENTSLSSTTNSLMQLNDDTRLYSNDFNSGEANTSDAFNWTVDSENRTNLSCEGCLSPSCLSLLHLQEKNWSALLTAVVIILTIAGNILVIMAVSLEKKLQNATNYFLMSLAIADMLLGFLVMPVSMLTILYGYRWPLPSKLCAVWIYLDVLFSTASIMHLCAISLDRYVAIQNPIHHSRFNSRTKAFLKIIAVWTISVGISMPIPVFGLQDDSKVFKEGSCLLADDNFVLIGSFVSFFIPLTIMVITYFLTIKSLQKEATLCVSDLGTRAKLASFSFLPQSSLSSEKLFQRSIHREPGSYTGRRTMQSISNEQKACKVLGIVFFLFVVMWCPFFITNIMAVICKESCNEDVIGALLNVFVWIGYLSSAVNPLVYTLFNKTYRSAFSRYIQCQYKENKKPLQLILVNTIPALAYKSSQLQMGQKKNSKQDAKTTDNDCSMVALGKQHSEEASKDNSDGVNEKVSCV
Outline: as §1

[7] = molecular target: T3, human 5-HT2A receptor; assay: Test 3: antagonist activity for human 5-HT2A receptor (aequorin luminescence, CHO-K1 cells); assay type: cell-based; conditions: CHO-K1 cells, 1 nmol/L 5-HT
Outline: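 CHO-K1 cells transiently co-expressing aequorin, Gα16 and receptor; compound in DMSO added and luminescence recorded on FDSS/μCELL.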

[8] = Test 5: predictive test of human half-life (monkey distribution volume, serum unbound fraction, microsomal stability); assay type: in vivo; conditions: predicted from cynomolgus monkey distribution volume (i.v.), serum unbound fraction and human hepatic microsome stability
Description: Test 5: Predictive Test of Human Half-Life
The present compound was intravenously administered to cynomolgus monkey as an aqueous solution in 0.01 mol/L hydrochloric acid. Blood was collected on 5 minutes, 15 minutes, 30 minutes, 1 hour, 2 hours, 4 hours, 6 hours, and 24 hours after the administration. Plasma was obtained from the collected blood, the drug concentration in the plasma was measured by LC-MS, and the distribution volume of monkey was calculated from the transition of the concentration.
The unbound fraction rate of the present compound in human or monkey serum was measured by equilibrium dialysis method.
The half-life in human was calculated according to the following formula using the results of the distribution volume of monkey, the unbound fraction rate in human or monkey serum, and the metabolic stability in human hepatic microsome obtained in Test 3.

[9] = molecular target: T2, hERG channel; assay: Test 6-1: inhibitory activity for hERG channel (auto patch clamp, Qpatch); assay type: cell-based; conditions: for IC50: whole cell auto patch clamp, hERG-CHO cells, read-out: hERG inhibition IC50; for hERG inhibition IC50 (nmol/L)/5-HT1A Ki (nmol/L): ratio of hERG IC50 to 5-HT1A Ki; for hERG inhibition IC50 (nmol/L)/5-HT2A Ki (nmol/L): ratio of hERG IC50 to 5-HT2A Ki
Outline: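 Whole-cell patch clamp on an automated system using CHO cells stably expressing human hERG (IKr); 15 s pulse interval. Four increasing compound concentrations applied cumulatively; mean peak tail current from last 3 stimulations per concentration used. IC50 from inhibition versus pre-compound current, fitted by Hill equation.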

[10] = molecular target: P-gp (MDR1) (Homo sapiens (Human), UniProt P08183); assay: Test 9: P-gp substrate property (NFR, MDCKII and MDR1-MDCKII cells); assay type: in vitro ADME; conditions: Net Flux Ratio, MDR1-MDCKII vs MDCKII cells
Sequence of P-gp (MDR1) (P08183 whole entry, species assumed): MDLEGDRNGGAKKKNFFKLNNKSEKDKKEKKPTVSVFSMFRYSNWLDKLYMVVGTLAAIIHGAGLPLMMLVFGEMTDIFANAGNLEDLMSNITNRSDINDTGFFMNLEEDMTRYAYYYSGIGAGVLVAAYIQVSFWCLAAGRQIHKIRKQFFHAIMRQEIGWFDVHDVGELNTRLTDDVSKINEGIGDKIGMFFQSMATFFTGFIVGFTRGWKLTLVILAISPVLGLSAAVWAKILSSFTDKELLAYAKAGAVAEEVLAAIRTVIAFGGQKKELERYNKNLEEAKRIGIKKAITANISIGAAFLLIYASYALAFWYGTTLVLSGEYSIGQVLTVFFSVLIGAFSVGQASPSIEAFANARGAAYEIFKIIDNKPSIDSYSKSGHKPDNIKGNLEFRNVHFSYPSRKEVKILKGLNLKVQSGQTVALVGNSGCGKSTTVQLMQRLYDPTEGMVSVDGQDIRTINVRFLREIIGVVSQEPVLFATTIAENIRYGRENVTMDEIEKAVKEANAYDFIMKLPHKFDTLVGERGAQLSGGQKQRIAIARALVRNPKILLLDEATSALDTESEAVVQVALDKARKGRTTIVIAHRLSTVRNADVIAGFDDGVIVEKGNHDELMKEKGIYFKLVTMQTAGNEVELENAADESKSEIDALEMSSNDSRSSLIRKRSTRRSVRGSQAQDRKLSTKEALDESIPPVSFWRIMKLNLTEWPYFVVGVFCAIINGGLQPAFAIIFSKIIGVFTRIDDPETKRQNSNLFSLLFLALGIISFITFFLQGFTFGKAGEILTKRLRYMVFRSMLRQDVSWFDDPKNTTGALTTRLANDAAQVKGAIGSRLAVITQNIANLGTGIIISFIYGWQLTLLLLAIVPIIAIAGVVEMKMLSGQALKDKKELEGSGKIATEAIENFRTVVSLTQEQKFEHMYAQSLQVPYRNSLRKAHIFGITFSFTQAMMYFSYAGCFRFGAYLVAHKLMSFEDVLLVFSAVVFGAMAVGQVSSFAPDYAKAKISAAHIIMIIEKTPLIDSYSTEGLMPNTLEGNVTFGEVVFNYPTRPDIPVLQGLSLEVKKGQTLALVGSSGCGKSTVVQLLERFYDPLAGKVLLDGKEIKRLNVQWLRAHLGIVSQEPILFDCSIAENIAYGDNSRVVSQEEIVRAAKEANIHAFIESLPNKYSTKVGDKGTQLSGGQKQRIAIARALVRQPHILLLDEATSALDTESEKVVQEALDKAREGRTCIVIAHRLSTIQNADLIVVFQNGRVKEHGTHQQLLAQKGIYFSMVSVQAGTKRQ
Description: […]
NFR (Net Flux Ratio), which is an index of P-gp substrate property, can be calculated as follows. MDCKII (Madin-Darby canine kidney strain II) cells and MDR1-MDCKII cells in which MDR1 (multidrug resistance protein 1) was overexpressed were used to measure an apparent permeability coefficient (Papp A-B) from lumen (A) to basement membrane (B) and an apparent permeability coefficient (Papp B-A) from basement membrane (B) to lumen (A) of both MDCKII cells and MDR1-MDCKII cells. NFR (Net Flux Ratio) was calculated from the ratio between Ratio (Papp B-A/Papp A-B) of an apparent permeability coefficient of MDR1-MDCKII cells and Ratio of an apparent permeability coefficient of MDCKII cells.

[11] = Test 10: intracerebral transferability of rats (Kp,uu,brain); assay type: in vivo, rat; conditions: unbound drug concentration ratio brain/plasma
Description: Test 10: Evaluation of Intracerebral Transferability (Test for Intracerebral Transferability of Rats)
In this test, intracerebral transferability of the present compounds was evaluated by the following method. The present compounds were subcutaneously administered as a solution in saline, or orally administered as a suspension in methyl cellulose to 7-week-old SD or WKY rats. Plasma and brain were collected on 0.5 hours, 1 hour, or 2 hours after the administration to measure the drug concentrations in plasma and brain by LC-MS.
Binding rates of the present compound to plasma and brain protein were measured by equilibrium dialysis method.
Kp,uu,brain (unbound drug concentration ratio between brain/plasma) can be calculated by applying the compound concentrations in plasma and brain and the binding rates to plasma and brain protein obtained from the above test into the following formula. Kp,uu,brain=(Compound concentration in brain×(100−Binding rate to brain protein (%))/100)/(Compound concentration in plasma×(100−Binding rate to plasma protein (%))/100)

T1 sequence (P08908 whole entry): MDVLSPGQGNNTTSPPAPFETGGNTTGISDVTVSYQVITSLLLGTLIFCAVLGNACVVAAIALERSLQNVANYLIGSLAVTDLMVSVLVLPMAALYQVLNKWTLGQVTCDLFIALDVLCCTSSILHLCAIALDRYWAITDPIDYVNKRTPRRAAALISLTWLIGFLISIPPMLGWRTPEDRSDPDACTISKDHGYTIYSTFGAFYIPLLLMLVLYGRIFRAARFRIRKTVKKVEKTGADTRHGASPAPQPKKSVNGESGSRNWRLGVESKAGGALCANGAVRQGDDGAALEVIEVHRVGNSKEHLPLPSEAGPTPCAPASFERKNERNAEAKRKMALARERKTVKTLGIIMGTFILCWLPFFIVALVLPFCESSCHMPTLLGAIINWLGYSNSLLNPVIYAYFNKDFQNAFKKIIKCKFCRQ

| Compound | Ki [1] [nM] | EC50 [2] [nM] | Emax at 10 µM [2] [%] | Metabolic stability in human hepatic microsome [3] [mL/min/mg protein] | Ki [4] [nM] | IC50 [5] [nM] | Ki [6] [nM] | IC50 [7] [nM] | half-life [8] [h] | IC50 [9] [nM] | IC50 ([7]; aequorin luminescence) [nM] | D2 Ki/5-HT1A Ki [4] | D2 Ki/5-HT2A Ki [4] | NFR [10] | hERG inhibition IC50 (nmol/L)/5-HT1A Ki (nmol/L) [9] | hERG inhibition IC50 (nmol/L)/5-HT2A Ki (nmol/L) [9] | Kp, uu, brain [11] |
| --- | --- | --- | --- | --- | --- | --- | --- | --- | --- | --- | --- | --- | --- | --- | --- | --- | --- |
| Cc1nn(C)c2c1C(=O)N(CCN1CCC(c3noc4ccccc34)CC1)CCC2 [Example 91] | 0.57 | 8.74 | 46 | <0.05 | 103 | 1800 | – | – | – | – | – | – | – | – | – | – | – |
| Cn1ncc2c1CCCN(CCN1CCN(c3noc4ccccc34)CC1)C2=O [Example 80] | – | – | 63 | 0.012 | – | – | 2.8 | 55 | 10 | 15400 | – | – | – | – | – | – | – |
| Cc1nn(C)c2c1C(=O)N(CCN1CCN(c3noc4ccccc34)CC1)CCC2 [Example 92] | 5.19 | 76.2 | 43 | 0.065 | 738 | > 10000 | – | – | – | – | – | – | – | – | – | – | – |
| Cc1cc2c(cn1)C(=O)N(CCN1CCN(c3noc4ccccc34)CC1)CC2 [Example 3, 2-{2-[4-(1,2-Benzoisoxazol-3-yl)piperazin-1-yl]ethyl}-6-methyl-3,4-dihydro-2,7-naphthyridin-1(2H)-one] | 2.7 | 10.1 | 69 | <0.01 | 1260 | – | – | – | > 30 | 7900 | – | – | – | – | – | – | – |
| CCc1ccc2c(n1)C(=O)N(CCN1CCC(c3noc4ccccc34)CC1)CC2 [Example 185] | 3.26 | 95.3 | 52 | <0.05 | 1170 | – | 28.3 | – | – | 700 | 68.7 | 358.6 | 41.4 | 2.4 | 214 | 25 | – |
| COc1cc2c(cn1)C(=O)N(CCN1CCN(c3nsc4ccccc34)CC1)CC2 [Example 2, 2-{2-[4-(1,2-Benzoisothiazol-3-yl)piperazin-1-yl]ethyl}-6-methoxy-3,4-dihydro-2,7-naphthyridin-1(2H)-one] | 0.03 | 0.18 | 69 | 0.22 | 128 | – | – | – | – | 2500 | – | – | – | – | – | – | 1.27 |
| Cn1cc2c(n1)CCN(CCN1CCN(c3nsc4ccccc34)CC1)C2=O [Example 36, 5-{2-[4-(1,2-Benzoisothiazol-3-yl)piperazin-1-yl]ethyl}-2-methyl-2,5,6,7-tetrahydro-4H-pyrazolo[4,3-c]pyridin-4-one] | 0.45 | 2.7 | 78 | 0.085 | 903 | – | 0.62 | 6 | – | 3200 | – | 2007 | 1456 | 1.8 | 7112 | 5162 | – |
| Cc1ncc2c(n1)CCN(CCN1CCC(c3noc4ccccc34)CC1)C2=O [Example 88, 6-{2-[4-(1,2-Benzoisoxazol-3-yl)piperidin-1-yl]ethyl}-2-methyl-7,8-dihydropyrido[4,3-d]pyrimidin-5(6H)-one] | 6.3 | 37 | 49 | <0.01 | 916 | – | – | – | > 23 | 5600 | – | – | – | – | – | – | – |
| Cc1c2c(nn1C)CCN(CCN1CCC(c3noc4ccccc34)CC1)C2=O [Example 37, 5-{2-[4-(1,2-Benzoisoxazol-3-yl)piperidin-1-yl]ethyl}-2,3-dimethyl-2,5,6,7-tetrahydro-4H-pyrazolo[4,3-c]pyridin-4-one] | 2.68 | 35 | 71 | 0.017 | 267 | – | – | – | 8 | 1000 | – | – | – | – | – | – | – |
| Cn1ccc2c1CCCN(CCN1CCC(c3noc4ccccc34)CC1)C2=O [Example 103, 5-{2-[4-(1,2-Benzoisoxazol-3-yl)piperidin-1-yl]ethyl}-1-methyl-5,6,7,8-tetrahydropyrrolo[3,2-c]azepin-4(1H)-one] | 0.47 | 5.8 | 62 | <0.01 | 129 | – | – | – | > 45 | 1400 | – | – | – | – | – | – | – |
